Data taken from EP0466038A1, “Water-dispersible polyene antifungal complexes” (priority 1990, dated 1992).

Assay: Serum concentration of amphotericin B in rabbits after rectal administration of suppositories (HPLC)
Details: rabbit, in vivo, 10 mg/kg
Procedure: The base Witepsol H-15 was melted at 45° C in a temperature-controlled bath. Equal portions of amphotericin B and dipotassium glycyrrhizinate were added and the mixture was quickly poured into suppository molds and allowed to solidify at room temperature. The target potency was 20 mg amphotericin B/g suppository.
This procedure was repeated with ratios of 1:4 and 1:9 w/w amphotericin B:dispotassium glycyrrhizinate.
These suppositories were tested on white male rabbits weighing from 2.6 to 3.2 kg that received water freely but otherwise fasted for 24 hours prior to administration. Amphotericin B was dosed in 10 mg (activity)/kg and positioned about 2 cm into the rectum. Blood samples of about 1.5 ml were collected from an ear vein of each rabbit at appropriate intervals and evaluated according to procedures in Nilsson-Ehle et al., "Quantitation of amphotericin B with use of High-Pressure Liquid Chromatography," J. Infectious Diseases, Vol. 135, No. 3 (1977).

Compound C[C@@H]1[C@H](O)[C@@H](C)/C=C/C=C/C=C/C=C/C=C/C=C/C=C/[C@H](O[C@@H]2O[C@H](C)[C@@H](O)[C@H](N)[C@@H]2O)C[C@@H]2O[C@](O)(C[C@@H](O)C[C@@H](O)[C@H](O)CC[C@@H](O)C[C@@H](O)CC(=O)O[C@H]1C)C[C@H](O)[C@H]2C(=O)O [Amph., amphotericin B] has a concentration at 1 h of 1 ng/mL, a concentration at 3 h of 2.3 ng/mL and a concentration at 5 h of 1.5 ng/mL. For the same compound, the concentration at 7 h was 1 ng/mL, the concentration at 9 h was 3.3 ng/mL and the concentration at 11 h was 2.7 ng/mL. It also gave a concentration at 24 h of 1.3 ng/mL.
